{"source": "patent US12415839B2", "about": "“IgE epitope-like peptides and uses thereof” (Univerza v Ljubljani, priority 2018, dated 2025)"}
{"test_system": "IgE of peanut allergic patients", "assay": "Immunodot assay with sera of peanut allergic patients", "format": "binding, human", "settings": "peptide-pIII fusion proteins spotted on nitrocellulose, patient sera diluted 1:10, FIG. 3", "description": "Three selected IgE epitope-like peptides (ELP 2, ELP 5, ELP 6) were extracted as recombinant fusions with bacteriophage minor coat protein pIII from the periplasm of host bacteria with osmotic shock. Two target-unrelated control peptides also fused to protein pIII (binders to streptavidin and human leptin) were extracted in the same way and served as negative controls (C1, C2). Briefly, E. coli host bacteria were infected with individual phage clones and grown for 2 hours at 37° C. with agitation. Bacteria pellets were spun down at 5000×g for 10 min and resuspended in 1 ml of an ice-cold solution consisting of 20% sucrose, 200 mM Tris-HCl pH 8.0 and 1 mM EDTA supplemented with protease inhibitor cocktail (EZBlock™, BioVision, San Francisco, USA) at a dilution of 1:200. After 1 h incubation on ice with occasional stirring supernatants were harvested by centrifugation at 12000×g for 20 minutes at 4° C. Resulting periplasmic extracts containing […] fusion proteins were concentrated (4-5 fold) and sucrose buffer exchanged for PBS by ultrafiltration with 10 kDa cut-off membrane (Microsep Advance Centrifugal Device, Pall Corporation, New York, USA). For immunoprecipitation of each selected peptide, 20 μg of affinity purified rabbit IgG against Ara h 2 (INDOOR Biotechnologies, Charlottesville, Virginia, USA) were covalently coupled to 1 mg of Dynabeads M-280 Tosylactivated™ (Thermo Fisher Scientific) according to manufacturer's protocol. Control peptides were immunoprecipitated in the same way using 10 μg of anti-human leptin antibody (R and D Systems Cat #MAB398 RRID:AB_2136056) coupled to 1 mg of Dynabeads M-280 Tosylactivated™ in the case of peptide with the affinity toward human leptin and 0.5 mg of streptavidin-coupled beads (Dynabeads™ MyOne™ Streptavidin T1, Thermofisher Scientific) in the case of peptide with the affinity towards streptavidin. […]"}
{"substance": "DHPRFNRDNDVA (IgE epitope-like peptide) [ELP 2]", "binding to IgE of peanut allergic patients": "bind to patients' IgE"}
{"substance": "DHPRYGP (IgE epitope-like peptide) [ELP 5]", "binding to IgE of peanut allergic patients": "bind to patients' IgE"}
{"substance": "DHPRFST (IgE epitope-like peptide) [ELP 6]", "binding to IgE of peanut allergic patients": "bind to patients' IgE"}
